Values joined by “and” are separate entries in the source; they are usually repeats but may differ in a detail not shown here. Equal values may be shown once. “Also recorded” adds a separate entry of the source. Where a name gives a salt, the structure may show the parent alone. Read-outs that look alike come from different tables or passages of the source.
How the values were obtained:
M^pro = conditions: read-out: Activity: IC50; cited from earlier work
SARS-CoV-2 [1] = conditions: cited from earlier work
wild type SARS-CoV-2 = experiment: microbe, parasite or virus in culture; type: cell-based; conditions: mean ± sd
[2] = rats, 4 h after oral administration; cited from earlier work
cyclophilin A = target: cyclophilin A; design: method as in PMID 34677780; conditions: cited from earlier work
in vitro = conditions: African green monkey
[3] = test system: SARS-CoV-2 spike mediated cell fusion; conditions: at 10 μM; cited from earlier work
SARS-CoV-2 PL^pro = SARS-CoV-2 PL^pro (Severe acute respiratory syndrome coronavirus 2, UniProt P0DTD1); experiment: SARS-CoV-2 PL^pro inhibition assay; type: biochemical; conditions: read-out: inhibition rate against papain-like protease (PL^pro)
inflammatory cytokines = conditions: at 2.5 μM; cited from earlier work
SARS-CoV-2 M^pro = SARS-CoV-2 M^pro (Severe acute respiratory syndrome coronavirus 2, UniProt P0DTD1); experiment: biochemical
[4] = human, in vivo
[5] = Pharmacokinetics in healthy rhesus macaques after nasogastric administration; conditions: 200 mg/kg nasogastric; for Cmax / AUC / MRT / half-life: rhesus monkey, plasma, 200 mg/kg
[6] = Lung distribution study in mouse; conditions: male, ICR, po
[7] = cited from earlier work; for AUC0-∞: healthy human volunteers
[8] = cited from earlier work
[9] = HIV-infected patients; cited from earlier work
[10] = male, rhesus monkey, in vivo
SARS-CoV-2 [11] = experiment: Randomized open-label clinical trial in mild/moderate COVID-19 patients, efficacy; type: in vivo
cathepsin L = conditions: read-out: IC50 against cathepsin L; cited from earlier work
[12] = twice daily, cited from earlier work
[13] = test system: SARS-CoV-2 strain 20SF107; type: in vivo, rhesus macaques
SARS-CoV-2 RdRp complex = SARS-CoV-2 RdRp complex (Severe acute respiratory syndrome coronavirus 2, UniProt P0DTD1); experiment: biochemical
[14] = Severe acute respiratory syndrome coronavirus 2, Vero C1008, Vero E6 cells
[15] = Severe acute respiratory syndrome coronavirus 2, Calu-3 cells
[16] = log-rank analysis, N = 5, NE = Not Evaluable

SMILES: CC(C)(C)NC(=O)[C@@H](c1cccnc1)N(C(=O)c1ccco1)c1ccc(C(C)(C)C)cc1 [0EN]
- IC50 (M^pro): 4.8 µM

SMILES: CCOC(=O)CC[C@H](C[C@@H]1CCNC1=O)NC(=O)[C@H](CC=C(C)C)CC(=O)[C@@H](NC(=O)[C@H](CO)NC(=O)OC(C)(C)C)C(C)C [CYV]
- IC50 (M^pro): 80 µM

SMILES: Cc1cc(S(=O)(=O)c2c([N+](=O)[O-])cc(C(F)(F)F)cc2[N+](=O)[O-])c(Cl)cc1Cl [D3F]
- IC50 (M^pro): 0.3 µM

SMILES: O=C(Sc1n[nH]c(C(F)(F)F)n1)c1ccc(C#Cc2ccccc2)o1 [F3F]
- IC50 (M^pro): 3 µM

SMILES: CCC(CC)COC(=O)[C@H](C)N[P@](=O)(OC[C@H]1O[C@@](C#N)(c2ccc3c(N)ncnn23)[C@H](O)[C@@H]1O)Oc1ccccc1 [Remdesivir]
- reduction of recovery time (SARS-CoV-2 [1]; hospitalized adults): 5 days
- EC50 (wild type SARS-CoV-2; [14]): 1.01 ± 0.13 µM
- EC50 (wild type SARS-CoV-2; [15]): 1.11 ± 0.17 µM

SMILES: CC(C)C(=O)OC[C@H]1O[C@@H](n2ccc(NO)nc2=O)[C@H](O)[C@@H]1O [molnupiravir]
- decrease of the risk of hospitalization or death (SARS-CoV-2 [1]; MOVe-OUT, non-hospitalized patients): 48%

SMILES: Cc1c(O)cccc1C(=O)N[C@@H](CSc1ccccc1)[C@H](O)CN1C[C@H]2CCCC[C@H]2C[C@H]1C(=O)NC(C)(C)C [nelfinavir, Nelfinavir Mesylate]
- lung-to-plasma ratio [2]: 3.24
- Kd (cyclophilin A): 0.94 µM
- CC50 (in vitro): 51.6 µM
- inhibition of SARS-CoV-2 spike mediated cell fusion [3]: completely inhibit
- selectivity index (SI) (Vero E6 cells): 17.59
- inhibition at 100 µM (SARS-CoV-2 PL^pro): 33.3 ± 2.47%
- inhibition of inflammatory cytokines in vitro (inflammatory cytokines): successfully inhibit
- IC50 (SARS-CoV-2 M^pro; IC50 against SARS-CoV-2 M^pro): 23 µM and > 20 µM
- IC50 (SARS-CoV-2 M^pro; IC50 against SARS-CoV-2 main protease (M^pro)): 8.26 µM
- EC50 (wild type SARS-CoV-2; [14]): 2.93 ± 0.32 µM
- EC50 (wild type SARS-CoV-2; [15]): 1.86 ± 0.26 µM
- cases of grade 1 adverse events [4]: 15 cases
- death of illness [4]: No patients died
- grade of adverse events during the trial [4]: all grade 1
- number of patients with grade 1 adverse events [4]: 10 patients
- patients with abnormal sitting blood pressure, respiratory rate and pulse [4]: no clinically significant patients
- proportion of patients with grade 1 adverse events [4]: 52.6%
- Tpeak ([5]; Monkey 1, healthy): 6.00 h
- Tpeak ([5]; Monkey 2, healthy): 4.00 h
- Cmax ([5]; oral, average maximum plasma concentration (Cmax), two healthy rhesus macaques): 3.2 µM
- AUC ([5]; po, AUCon, Monkey 1, healthy): 28.4 µM·h
- AUC ([5]; po, AUCon, Monkey 2, healthy): 10.6 µM·h
- AUC ([5]; po, AUCtot, Monkey 1, healthy): 28.4 µM·h
- AUC ([5]; po, AUCtot, Monkey 2, healthy): 10.7 µM·h
- Cmax ([5]; po, Cmax, Monkey 1, healthy): 5.33 µM
- Cmax ([5]; po, Cmax, Monkey 2, healthy): 1.07 µM
- MRT ([5]; po, Monkey 1, healthy): 7.25 h
- MRT ([5]; po, Monkey 2, healthy): 12 h
- half-life ([5]; po, t1/2, Monkey 1, healthy): 4.46 h
- half-life ([5]; po, t1/2, Monkey 2, healthy): 6.92 h
- time at which Cmax was achieved after dosing ([5]; two healthy rhesus macaques): 5 h
- Kp [6]: 2 to 3
- Kp at 0.5 h ([6]; 250 mg/kg): 2.08 ± 0.5
- Kp at 1 h ([6]; 250 mg/kg): 2.35 ± 0.34
- Kp at 3 h ([6]; 250 mg/kg): 2.24 ± 0.59
- Kp at 6 h ([6]; 250 mg/kg): 1.81 ± 0.19
- Kp at 9 h ([6]; 250 mg/kg): 2.33 ± 0.28
- Kp at 0.5 h ([6]; 750 mg/kg): 2.07 ± 0.42
- Kp at 1 h ([6]; 750 mg/kg): 3.11 ± 0.82
- Kp at 3 h ([6]; 750 mg/kg): 2.83 ± 0.33
- Kp at 6 h ([6]; 750 mg/kg): 3.22 ± 0.63
- Kp at 9 h ([6]; 750 mg/kg): 2.61 ± 0.08
- AUC0-∞ ([7]; dosage of 100 mg): 1250 ± 230 ng·h/mL
- AUC0-∞ ([7]; dosage of 800 mg): 22208 ± 6306 ng·h/mL
- plasma Ctrough,Morning ([7]; human, 1250 mg BID, ref VIRACEPT FDA Package Insert Reference ID: 3986049): 3.87 µM
- Cmax ([7]; human, 1250 mg BID, ref VIRACEPT FDA Package Insert Reference ID: 3986049, read-out: plasma Cmax): 7.04 µM
- concentration in the lung epithelial lining fluid versus plasma [8]: comparable to that in plasma
- proportion of patients with detectable drug in bronchoalveolar lavage (BAL) fluid [8]: 100%
- lung distribution in patients relative to plasma ([8]; human, in vivo): approximately three times as high as that of plasma
- Cmax in PBMCs relative to plasma [9]: ~ 15 fold
- cellular accumulation in PBMCs relative to plasma [9]: 5.30 fold
- plasma concentration in infected relative to healthy rhesus macaques [10]: around 1/6
- trough plasma concentration (Ctrough) [10]: 0.26 µM
- plasma concentration at 5 h after dosing (C5h), average ([10]; 200 mg/kg): 0.55 µM
- proportion of subjects whose respiratory specimens were negative for SARS-CoV-2 RNA (SARS-CoV-2 [11]; 7th day of treatment, N = 19): 31.6%
- proportion of cases with fever (SARS-CoV-2 [11]; 9/19): 47.4%
- chest CT results of moderate COVID-19 (SARS-CoV-2 [11]; 14th day of treatment): one patient was abnormal and had no clinical significance
- proportion of subjects whose respiratory specimens were negative for SARS-CoV-2 RNA (SARS-CoV-2 [11]; 14th day of treatment, N = 19): 68.4%
- progression to severe or critical pneumonia (SARS-CoV-2 [11]; 14th day of treatment, patients with mild COVID-19 (N = 5)): no subjects
- TTCR time (time to clinical recovery) (SARS-CoV-2 [11]; N = 5, control 11.0 days): 7.0 days
- shortening of duration of fever time versus control group (SARS-CoV-2 [11]; P = 0.014): 3.8 days
- shortening of median time for TTCR (SARS-CoV-2 [11]; P = 0.899): 4.0 days
- average fever days (duration of fever time) in patients with fever (SARS-CoV-2 [11]; control 6.6 ± 4.1 days, P = 0.014): 2.8 days and 2.8 ± 1.6 days
- progression of subjects with mild disease to pneumonia (SARS-CoV-2 [11]; day 7 of treatment): did not progress to pneumonia
- time of TTCR, 25%(95%CI) (SARS-CoV-2 [11]; [16]): 4.0(1.0~ NE) d
- time of TTCR, 50%(95%CI) (SARS-CoV-2 [11]; [16]): 7.0(1.0~ NE) d
- time to convert to negative throat swab, 25%(95%CI) (SARS-CoV-2 [11]; log-rank analysis, N = 19): 5.0(1.0~9.0) d
- time to convert to negative throat swab, 50%(95%CI) (SARS-CoV-2 [11]; log-rank analysis, N = 19): 9.0(5.0~11.0) d
- time to convert to negative throat swab, 75%(95%CI) (SARS-CoV-2 [11]; log-rank analysis, N = 19): 12.0(9.0~22.0) d
- shortening of duration of viral shedding versus control group (SARS-CoV-2 [11]; median, P = 0.055): 5.5 days
- median time to convert to negative throat swab of SARS-CoV-2 (duration of viral shedding) (SARS-CoV-2 [11]; nelfinavir 1250 mg every 12 h, N = 19, control 14.5 days, P = 0.055): 9.0 days
- IC50 (cathepsin L): 18 µM
- maximum tolerated dosage (MTD) ([12]; adults with solid tumors): 3125 mg
- maximum tolerated dosage (MTD) ([12]; liposarcoma, MTD not reached): > 4250 mg
- body weight change compared with control monkeys ([13]; 200 mg/kg prophylactic, twice daily): not significant
- body temperature compared with vehicle control monkeys ([13]; 200 mg/kg prophylactic, twice daily, […]): significantly lower
- viral loads in extrapulmonary tissues, e.g. colon and heart, compared with control group ([13]; […], no statistical difference): increasing trends
- reduction of viral replication in the lungs ([13]; at necropsy, prophylactic treatment): nearly three orders of magnitude; also recorded: approximately three orders of magnitude
- reduction of virus RNA in lung (left lower lobe) compared to vehicle-treated monkeys ([13]; rhesus monkey, in vivo): 2.88 log
- viral load in nasal swabs compared with control group ([13]; rhesus monkey, in vivo): Significant reductions; also recorded: significantly reduced; also recorded: significantly lower
- viral load in rectal (anal) swabs compared with control group ([13]; rhesus monkey, in vivo): Significant reductions; also recorded: significantly reduced; also recorded: significantly lower
- viral load in throat swabs compared with control group ([13]; rhesus monkey, in vivo): without significance
- virus RNA in kidney samples ([13]; rhesus monkey, in vivo): could not be detected
- IC50 (SARS-CoV-2 RdRp complex): 112 ± 8.2 µM

SMILES: CC(C)(C)[C@H](NC(=O)C(F)(F)F)C(=O)N1C[C@H]2[C@@H]([C@H]1C(=O)N[C@H](C#N)C[C@@H]1CCNC1=O)C2(C)C [nirmatrelvir]
- decrease of the probability of hospitalization or mortality (SARS-CoV-2 [1]; EPIC-HR, non-hospitalized adults at high risk): 89%
- rate of hospitalization owing to COVID-19 among treated patients (SARS-CoV-2 [1]; patients aged 40 to 64 years, Israel, omicron, untreated 15.8): 15.2 instances per 100,000 person-days

Reference: article PMC10123561 (Signal Transduction and Targeted Therapy, 2023)
